What was measured:
SW948 = assay: Inhibition of cell proliferation by MTS assay, SW948; type: cell-based; details: Homo sapiens; SW948, MTS assay at 72 hr
Procedure: (§1) Colon cancer cell lines SW948, HT-29, HCT116, CRC240, SW480, and DLD-1 were used in the cell proliferation assay. All cell lines, except CRC240, were from ATCC. CRC240, a colorectal cancer patient derived xenograft (PDX) cell line, was obtained from the Hsu lab (Duke University). Generation of CRC240 cell line was previously reported. SW948 cells were cultured in Leibovitz's medium (Gibco, catalog number 21083-027). HT-29 and HCT116 cells were cultured in McCoy's 5A medium (Gibco, catalog number 16600-082). SW480 cells were cultured in MEM medium. CRC240 and DLD-1 cells were cultured in RPMI medium (Gibco, catalog number 11875-093). All media were supplemented with 10% FBS and 100 U/ml penicillin-streptomycin. […] IC50 values calculated using Graphpad Prism.

HCT116 = assay: Inhibition of cell proliferation by MTS assay, HCT116; type: cell-based; details: Homo sapiens, HCT-116; HCT116, MTS assay at 72 hr
Procedure: as §1

DLD-1 = assay: Inhibition of cell proliferation by MTS assay, DLD-1; type: cell-based; details: Homo sapiens; DLD-1, MTS assay at 72 hr
Procedure: as §1

CCD841Co colonic cells = assay: Assessment of oxygen consumption rate (OCR), Seahorse XFp; type: cell-based; details: 1 μM, CCD841Co cells, basal conditions, vs DMSO
Procedure: Colonic epithelial CCD841Co cells were plated in Seahorse XFp 8-well miniplates at 8000 cells/well and allowed to attach overnight at 37° C. in a 5% CO2 incubator. Polarographic analysis of OCR was performed using Seahorse XF Analyzer (Agilent Technologies, Santa Clara, Calif.) and a Seahorse XFp Cell Mito Stress Test Kit (Agilent Technologies, catalog number 103010-100). […] Data were analyzed by the software Wave (Version 2.3.0.20, Agilent Technologies, Santa Clara, Calif.).

Wnt/β-catenin signaling = assay: Wnt3A-stimulated TOPFlash reporter assay; type: cell-based; details: Homo sapiens; HEK293 stably expressing TOPFlash and Renilla luciferase, Wnt3A-conditioned medium, 0.04 to 10 μM, mean±SEM, n=3; read-out: IC50, inhibition of Wnt/β-catenin signaling in TOPFlash assay
Procedure: Wnt-3A conditioned medium was prepared using L WNT-3A cells (ATCC® CRL-2647™) purchased from ATCC, and was obtained using published protocols (http://www.atcc.org/Products/All/CRL-2647.aspx#culturemethod). HEK293 were stably transfected with p8×TOPFlash, Renilla luciferase plasmid pRL-TK, and pLKO.1. Briefly, stably transfected cells were seeded in 100 μL of cell growth medium (MEM, Sigma, catalog number M4655) supplemented with 10% FBS (Atlanta Biologieals, catalog number S11050), and 1 μg/mL puromycin (Sigma, catalog number P8833), 100 U/mL penicillin-streptomycin (Invitrogen, catalog number 15140122)/well in 96-well plates and incubated in 5% CO2 at 37° C. overnight to 100% confluency. Fifty microliters of Wnt-3A conditioned medium containing the chemical compounds to be tested or DMSO was added to each well. After 6 h treatment, the cell were washed once with PBS and lysed with 55 μL of Passive Lysis Buffer supplied in the Dual-Luciferase Reporter Assay kit (Promega, Catalog number E1960). Twenty-five microliters of cell lysate was used for measuring luciferase activity in a […] plate reader (FluoStar Optima, BMG Labtech, Chicago, Ill.).

[1] = test system: Wnt/β-catenin target gene protein levels; assay: Evaluation of Wnt signaling inhibition by Western blot; type: cell-based; details: 5 μM, 18 h; HCT116, SW-480 and CRC240 cells
Procedure: All cells were plated in 6 well-plates and allowed to attach overnight in a 5% CO2 incubator at 37° C. to reach 50-70 percent confluency. The cells were then treated with the indicated compound for 18 hours. Whole cell lysates were prepared by adding 200 μL 1.5× Laemmli sample buffer. Cytosolic lysates were prepared by treating cells with hypotonic buffer and dispersing cell aggregates by drawing the lysate buffer in and out a syringe equipped with 25G×1 needles. The cytosolic lysate was centrifuged at 15,000 rpm for 120 minutes, 200 μL of cytosol lysate was collected and 67 μL of 4× Laemmli sample buffer was added. Whole cell lysates were subjected to Western blot analysis using antibodies to c-Myc (Santa Cruz Biotechnology, catalog number SC-40), Cyclin D1 (Cell Signaling Technology, catalog number 2978), and Survivin (Cell Signaling Technology, catalog number 2808). Cytosol lysate were subjected to Western blot analysis using antibodies to β-catenin (Santa Cruz Biotechnology SC-7963) and Axin2 (Cell Signaling Technology, catalog number 2151). An antibody to β-actin (Santa Cruz Biotechnology, catalog number SC-47798) was used as a loading control.

CRC240 PDX tumors = assay: CRC240 PDX xenograft tumor study; type: in vivo, NOD/SCID mice; details: 11 days
Procedure: The development of CRC240 PDX was previously reported (Lu et al. PLoS One 2017, 12, e0169439). Briefly, CRC240 PDX tissue were wash in PBS and then minced in PBS at 150 mg/mL. 200 μL of the PDX tissue suspension were implanted into the flanks of NOD/SCID mice. When PDX tumor volume reached about 100 mm^3, mice were randomized and were orally dosed for 11 days daily byniclosamide, DK419, or the vehicle control (10% 1-methyl-2-pyrrolidmone and 90% PEG300). […] DK419 was dissolved in the vehicle at 0.2 mg/ml and dosed at 1 mg/kg. Tumor size and body weight were measured at day 0, 4, 8, and 11. The day after the last dose, animals were euthanized and tumor samples were collected and processed for Western blot analysis. Briefly, tumor samples were lysed in RIPA Buffer (Thermofisher Scientific, catalog number 89900). Sample lysates were subjected to Western blot using antibodies to Survivin, c-Myc, and Axin2 as described above. β-actin was used as a loading control.

HT-29 = assay: Inhibition of cell proliferation by MTS assay, HT-29; type: cell-based; details: Homo sapiens; HT-29, MTS assay at 72 hr
Procedure: as §1

CRC240 = assay: Inhibition of cell proliferation by MTS assay, CRC240; type: cell-based; details: Homo sapiens; CRC240, MTS assay at 72 hr
Procedure: as §1

six CRC tumor cell lines = assay: MTS assay, summary over six CRC tumor cell lines; type: cell-based; details: read-out: IC50 values, range over the six CRC cell lines
Procedure: as §1

IC50 (SW948) | IC50 (HCT116) | IC50 (DLD-1) | IC50 (Wnt/β-catenin signaling) | IC50 (HT-29) | IC50 (six CRC tumor cell lines) | Compound | oxygen consumption rate (CCD841Co colonic cells) | levels of Axin2, β-catenin, c-Myc, Cyclin D1 and Survivin by Western blot [1] | growth of CRC240 PDX tumors (tumor volume) (CRC240 PDX tumors; 1 mg/kg (2.4 μmol/kg) oral once a day, vs vehicle) | body weight (CRC240 PDX tumors; 1 mg/kg oral once a day) | levels of Wnt/β-catenin target genes (Axin2, Survivin, c-Myc) in tumors, Western blot (CRC240 PDX tumors; 1 mg/kg oral once a day, tumors collected day after last dose, vs vehicle) | IC50 (CRC240) | growth of CRC240 PDX tumors (tumor volume) (CRC240 PDX tumors; 72 mg/kg (220 μmol/kg) oral once a day, vs vehicle) | body weight (CRC240 PDX tumors; 72 mg/kg oral once a day)
0.04 µM | 0.23 µM | 0.35 µM | 0.19 ± 0.08 µM | 0.11 µM | 0.04 to 0.35 µM | O=C(Nc1ccc(C(F)(F)F)cc1)c1cc(Cl)cc2nc(C(F)(F)F)[nH]c12 [DK419, 6-chloro-2-(trifluoromethyl)-N-(4-(trifluoromethyl)phenyl)-1H-benzo[d]imidazole-4-carboxamide] | increases the rate of oxygen consumption | reduced levels | inhibited the growth of CRC240 PDX tumors compared to vehicle control | Neither DK419 nor niclosamide produced a change in body weight | reduced significantly | 0.31 µM |  | 
0.1 µM | 0.31 µM | 1.78 µM | 0.45 ± 0.14 µM | 0.1 µM | 0.1 to 1.78 µM | O=C(Nc1ccc([N+](=O)[O-])cc1Cl)c1cc(Cl)ccc1O [Niclosamide, reference compound] | increases the oxygen consumption rate | reduced levels |  |  |  | 0.68 µM | inhibited tumor growth | Neither DK419 nor niclosamide produced a change in body weight

Reference: patent US11987579B2 (Duke University, priority 2018, dated 2024)
